Ends that are not written are not given here.
How the values were obtained:
[1] = target: T1, transporters associated with processing (Mus musculus, UniProt P21958+P36371); assay: Transporter associated with processing; format: biochemical
T1 sequence (P21958 1-724): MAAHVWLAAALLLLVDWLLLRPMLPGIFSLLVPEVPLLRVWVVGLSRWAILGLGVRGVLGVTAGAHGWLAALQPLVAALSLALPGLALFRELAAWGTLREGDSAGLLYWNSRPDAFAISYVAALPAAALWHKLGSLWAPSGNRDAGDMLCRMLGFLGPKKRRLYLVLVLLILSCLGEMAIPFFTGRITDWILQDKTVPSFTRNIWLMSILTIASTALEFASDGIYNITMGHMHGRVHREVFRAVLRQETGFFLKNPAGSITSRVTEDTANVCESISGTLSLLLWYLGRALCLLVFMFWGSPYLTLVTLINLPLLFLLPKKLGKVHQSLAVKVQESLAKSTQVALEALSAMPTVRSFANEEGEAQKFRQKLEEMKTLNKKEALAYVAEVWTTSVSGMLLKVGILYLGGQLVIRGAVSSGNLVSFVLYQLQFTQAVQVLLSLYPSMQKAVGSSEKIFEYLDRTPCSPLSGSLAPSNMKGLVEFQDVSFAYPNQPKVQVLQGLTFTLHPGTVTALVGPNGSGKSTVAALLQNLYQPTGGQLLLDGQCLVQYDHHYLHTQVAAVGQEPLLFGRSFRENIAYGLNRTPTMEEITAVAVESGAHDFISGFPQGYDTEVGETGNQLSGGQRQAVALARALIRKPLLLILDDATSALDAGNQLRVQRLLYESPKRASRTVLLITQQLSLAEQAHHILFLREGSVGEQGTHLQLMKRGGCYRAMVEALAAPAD
T1 sequence (P36371 1-702): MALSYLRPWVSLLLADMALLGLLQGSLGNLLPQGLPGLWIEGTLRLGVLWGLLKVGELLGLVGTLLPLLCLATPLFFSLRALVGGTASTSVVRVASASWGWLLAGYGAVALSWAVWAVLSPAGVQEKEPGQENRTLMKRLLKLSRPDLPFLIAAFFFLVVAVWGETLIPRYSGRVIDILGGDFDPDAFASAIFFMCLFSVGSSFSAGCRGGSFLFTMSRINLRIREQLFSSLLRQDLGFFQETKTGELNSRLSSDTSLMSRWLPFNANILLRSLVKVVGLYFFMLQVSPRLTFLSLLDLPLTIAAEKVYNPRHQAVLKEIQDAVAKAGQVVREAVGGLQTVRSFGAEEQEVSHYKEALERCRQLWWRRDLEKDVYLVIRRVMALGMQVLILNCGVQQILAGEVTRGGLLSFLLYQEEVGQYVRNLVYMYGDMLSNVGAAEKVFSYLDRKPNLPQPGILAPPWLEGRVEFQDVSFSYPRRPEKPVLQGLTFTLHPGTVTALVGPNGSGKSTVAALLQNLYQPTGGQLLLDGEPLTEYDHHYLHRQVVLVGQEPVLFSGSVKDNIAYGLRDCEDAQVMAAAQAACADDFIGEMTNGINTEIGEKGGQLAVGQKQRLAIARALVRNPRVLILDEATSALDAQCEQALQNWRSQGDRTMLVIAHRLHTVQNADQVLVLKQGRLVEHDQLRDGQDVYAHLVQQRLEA

H-2K^b = H-2K^b (Mus musculus, UniProt P01901); assay: Peptide competition cytotoxicity assay; format: cell-based, murine

## TYSPPLNKL
[1]
  IC50: 5.81 µM
H-2K^b
  IC50: 13.6 µM

## LNKLFCQL
[1]
  IC50: 7.16 µM
H-2K^b
  IC50: 2.04 µM

## TTIHYKYM
[1]
  IC50: 5.68 µM

## VMCTYSPPL
[1]
  IC50: 2.47 µM

## AIYKKSQHM
[1]
  IC50: 4.07 µM
H-2K^b
  IC50: 0.271 µM

## YSPPLNKLF
[1]
  IC50: > 92.7 µM
H-2K^b
  IC50: 0.464 µM
